“Also recorded” adds a separate entry of the source. Where no end group is shown, it is not given here.
Key:
α11bβ3 integrin [1] = assay: platelet α11bβ3 integrin activation, FITC-PAC1 antibody binding by flow cytometry; type: cell-based, human; details: 150 μM peptide, 0.5 μM U46619, FITC-PAC1, compared to 500 μM Random Peptide
Protocol: The platelet count in human PRP was adjusted to 1×10^6 platelets/ml. The platelets were then labeled with FITC-conjugated PAC1 antibody against activated α11bβ3 integrin, and the samples were analyzed by flow cytometry in a Beckman Coulter CyAn II Flow Cytometer. Trace (a) depicts resting platelets labeled with FITC-PAC-1 antibody. Trace (b) depicts platelets stimulated with 0.5 μM U46619 and labeled with FITC-PAC1 antibody. Trace (c) depicts platelets incubated with 500 μM of the Random Peptide (SEQ ID NO:9), followed by 0.5 μM U46619 stimulation and FITC-PAC1 labeling. Trace (d) depicts platelets incubated with 150 μM of the G13SR2pep, followed by 0.5 μM U46619 stimulation and FITC-PAC1 labeling.
Subsequent experiments examined the effect of G13SR2pep, (SEQ ID NO:5) on human platelet α11bβ3 integrin activation as measured by FITC-PAC-1 antibody binding.

CD1 mice = assay: bleeding time in mice after intravenous administration; type: in vivo; details: 100 μl of 3.7 mM intravenously via tail vein, tail cut five minutes after administration
Protocol: Briefly, CD1 mice (25 grams) were anesthetized with sodium pentobarbital, and either 100 μl of vehicle or 100 μl of a vehicle solution containing 3.7 mM of each peptide or aspirin was administered intravenously via the tail vein. Five minutes following administration, the tail was cut 0.5 cm from the tip and immersed in PBS buffer (pH 7.4; 37EC). Cessation of bleeding was observed visually and the total bleeding time was recorded.

calcium mobilization = assay: calcium flux / calcium mobilization in platelets; type: cell-based, human; details: 250 μM peptide; induced by TRAP1 (10 μM), U46619 (0.5 μM) or ADP (10 μM)
Protocol: (§1) To further investigate the mechanism(s) by which G13SR2pep (SEQ ID NO:5) inhibited α11bβ3 integrin activation, the effect of G13SR2pep on calcium flux, RhoA activation, Src activation and changes in cAMP levels was determined using conventional assays.

RhoA = RhoA activation in platelets; type: cell-based, human; details: 250 μM peptide; induced by TRAP1 (10 μM), U46619 (0.5 μM) or ADP (10 μM)
Protocol: as §1

Src = Src activation in platelets; type: cell-based, human; details: 250 μM peptide; induced by TRAP1 (10 μM), U46619 (0.5 μM) or ADP (10 μM)
Protocol: as §1

cAMP levels = cAMP levels in human platelet-rich plasma; type: cell-based; details: 250 μM peptide
Protocol: as §1

α11bβ3 integrin [2] = target: T1, α11bβ3 integrin (Homo sapiens, UniProt P05106+P08514+Q9Y490); assay: peptide affinity column with solubilized human platelets, western blot for α11bβ3; type: binding; details: immunoblot, bands at 130 kD and 115 kD
T1 construct: detected two bands, one at 130 kD and the other at 115 kD in solubilized human platelets; endogenous in cells; host or cells: solubilized human platelets
Text: (§2) On this basis, subsequent experiments examined whether G13SR2pep peptide (SEQ ID NO:5) does indeed directly interact with α11bβ3 and/or one of its associated proteins in human platelets. In this respect, platelet α11bβ3 integrin is known to exist in a complex with two cytoplasmic proteins, i.e., talin and kindlin-3 (Tadokoro, et al. (2003) Science 302:103-6; Moser, et al. (2008) Nature Med. 14:325-30). To determine whether G13SR2pep, (SEQ ID NO:5) interacts with any of these proteins (or with the entire α11bβ3, talin, kindlin-3 complex), peptide affinity columns using G13SR2pep (SEQ ID NO:5) were employed. The affinity purified protein(s) from solubilized human platelets that specifically bound to the G13SR2pep peptide were eluted, and analyzed by western blot for α11bβ3 integrin, talin and kindlin-3. In similar experiments, the eluates from a peptide column using the G13SR2-Random Peptide (SEQ ID NO:9) were also analyzed. Immunoblot analysis with the α11bβ3 antibodies (Abcam) detected two bands, one at 130 kD and the other at 115 kD in solubilized human platelets as well as in the elution fraction obtained from the G13SR2pep (SEQ ID NO:5) affinity column. […] This was supported by similar experiments using talin antibodies and the kindlin 3 antibody (Abcam).

talin = target: T2, talin (Homo sapiens, UniProt Q9Y490); assay: peptide affinity column with solubilized human platelets, western blot for talin; type: binding
T2 construct: also purified whole talin (220 kD), the talin head domain (47 kD) and kindlin 3 (72 kD); endogenous in cells; host or cells: solubilized human platelets
T2 sequence (Q9Y490 1-433): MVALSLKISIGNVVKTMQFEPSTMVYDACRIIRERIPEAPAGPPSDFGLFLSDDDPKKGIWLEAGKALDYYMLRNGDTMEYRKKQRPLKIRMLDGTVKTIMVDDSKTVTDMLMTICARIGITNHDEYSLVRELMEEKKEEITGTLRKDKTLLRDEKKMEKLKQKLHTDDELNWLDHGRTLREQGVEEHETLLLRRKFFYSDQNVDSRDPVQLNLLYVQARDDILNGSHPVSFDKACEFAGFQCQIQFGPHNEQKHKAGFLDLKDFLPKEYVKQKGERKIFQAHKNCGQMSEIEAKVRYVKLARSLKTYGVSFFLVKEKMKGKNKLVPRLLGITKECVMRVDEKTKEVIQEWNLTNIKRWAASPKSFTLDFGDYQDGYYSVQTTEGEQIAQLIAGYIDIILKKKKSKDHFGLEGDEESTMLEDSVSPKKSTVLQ
Text: as §2
Thus, the binding of G13SR2pep (SEQ ID NO:5) to the talin head domain serves as the basis for the ability of G13SR2pep to inhibit α11bβ3 integrin activation and platelet aggregation. As such, peptides or specific compounds fashioned to mimic or modify the switch region interaction with talin, α11bβ3 integrin or other α11bβ3 integrin-associated proteins would have profound effects on thrombosis and other integrin-linked disease processes.

kindlin-3 = target: T3, kindlin-3 (Homo sapiens, UniProt Q86UX7); assay: peptide affinity column with solubilized human platelets, western blot for kindlin-3; type: binding; details: immunoblot, kindlin 3 (72 kD)
T3 construct: also purified whole talin (220 kD), the talin head domain (47 kD) and kindlin 3 (72 kD); endogenous in cells; host or cells: solubilized human platelets
Text: as §2

human platelets = assay: human platelet aggregation in platelet rich plasma (PRP); type: cell-based; details: PRP

## VGGQRSERKRWFECFDS [G13SR2pep, non-myristoylated G13 Switch Region 2 peptide]
α11bβ3 integrin [1]
  inhibition of U46619-mediated activation of α11bβ3 integrin: dramatically inhibited
CD1 mice
  bleeding time: increased bleeding times; also recorded: substantially increases
Calcium mobilization
  calcium mobilization: did not alter
RhoA
  RhoA activation: did not alter
Src
  Src activation: did not alter
cAMP levels
  cAMP levels: did not alter
α11bβ3 integrin [2]
  α11bβ3 in affinity column eluate (interaction with peptide): directly interacts
talin; solubilized human platelets, immunoblot, whole talin (220 kD), talin head domain (47 kD)
  talin in affinity column eluate: purified
talin; α11bβ3-talin-kindlin 3 complex dissociated, affinity column eluates
  binding to talin head domain: binding partner
kindlin-3
  kindlin 3 in affinity column eluate: purified
Human platelets; 150 μM peptide, 10 μM A23187
  platelet aggregation induced by the divalent cation ionophore A23187: capable of blocking
Human platelets; 75-150 μM G13SR2pep (Random Peptide 500 μM), 0.5 μM U46619
  inhibition of human platelet aggregation stimulated by U46619: dose-dependent inhibition
Human platelets; 75-150 μM G13SR2pep (Random Peptide 500 μM), 10 μM ADP
  inhibition of human platelet aggregation stimulated by ADP: dose-dependent inhibition
Human platelets; 75-150 μM G13SR2pep (Random Peptide 500 μM), 15 μM TRAP1
  inhibition of human platelet aggregation stimulated by TRAP1: dose-dependent inhibition
Human platelets; 75-150 μM G13SR2pep (Random Peptide 500 μM), 50 μM TRAP4
  inhibition of human platelet aggregation stimulated by TRAP4: dose-dependent inhibition

From patent US8575103B2, “Peptides and methods for inhibiting G alpha protein signaling” (The Board of Trustees of the University of Illinois, priority 2009, dated 2013)
